Source: patent publication EP2992885A2, “METHOD FOR INHIBITING A LIVER DISEASE” (priority 2014, dated 2016)
Structures can show the parent of a compound that is named as a salt.

What was measured:
ROCK II = ROCK II expression in HepG2 cells; assay type: cell-based
Method: HepG2 cells were treated with various concentrations of drugs for 24 hours. Reactions were terminated by washing twice with cold PBS, and the cells were then harvested. Proteins in the whole-cell lysate were homogenized in an ice-cold lysis buffer and a protease inhibitor (Sigma-Aldrich, St. Louis, MO, U.S.A.). The homogenate was centrifuged at 90, 000 g for 15 minutes at 4°C, and supernatant was recovered as the total cellular protein. Cytosolic and membrane fractions of HepG2 cells were prepared using a CNM (Cytosol Nuclear Membrane) compartment protein extraction kit (BioChain Institute Inc., Hayward, CA, U.S.A.) according to the manufacturer's instructions. All of the fractionated protein solutions were stored at -80°C until analysis. To measure the expression levels of proteins by drugs, the total cell protein was extracted after incubation with treatments for 24 hours and then Western blotting analysis was performed as described previously.
To confirm that RhoA antagonist C3 exoenzyme (5 µg/ml) and ROCK antagonist Y27632 (10 µM), dissolved in 10% popyleneglycol, can inactivate_the expression of ROCK II, they were added to cells in culture for 24 hours, respectively, to measure the expression of ROCK II and related expressions of PPARγ and ABCA-1 in HepG2 cells.

HMG CoA reductase = assay: HFD-induced HMG CoA reductase expression in liver, 8 weeks; assay type: in vivo, mice; settings: HFD 8 weeks; KMUP-1 HCl 2.5, 5 mg/kg; simvastatin 5 mg/kg, by gavage
Method: During the 2 month experiments, mice fasted for one night before the experiment was changed from a standard diet (STD) to a HFD and then the mice were randomly divided into 5 groups, including 2 control and 3 treatment groups. Six mice were used in each group. The control mice received either STD or HFD and the protection group was fed HFD with KMUP-1 HCl (2.5 and 5 mg/kg/day), simvastatin (5 mg/kg/day) or a target drug administered by gavage to assess weight gain followed by biochemical analysis. […]
The obtained protein extract was boiled to a ratio of 4:1 with a sample buffer (Tris 100 mM, pH 6.8, glycerol 20%, SDS 4% and bromophenol blue 0.2%).
The blot was then incubated with anti-mouse or anti-goat IgG linked to alkaline phosphatase (1:1000) for 1 hour.

mice fed with HFD = assay: HFD-fed mice, 8 weeks: serum and liver lipid levels, body weight, food intake; assay type: in vivo, C57BL/6J male mice; parameters: TG / Tot. chol. / HDL chol. / LDL chol.: unit not given here; settings: for HDL chol. / LDL chol. / TG / Tot. chol.: Table 2, HFD mice, unit not given in Table 2 (Table 1 gives mg/dl); for HDL (HDL cholesterol) / LDL (LDL cholesterol) / TG of liver (Triacylglycerol) / TG in serum (Triacylglycerol): HFD for 8 weeks; for TG in serum (Triacylglycerol): means±SE
Method: During the 2 month experiments, mice fasted for one night before the experiment was changed from a standard diet (STD) to a HFD and then the mice were randomly divided into 5 groups, including 2 control and 3 treatment groups. Six mice were used in each group. The control mice received either STD or HFD and the protection group was fed HFD with KMUP-1 HCl (2.5 and 5 mg/kg/day), simvastatin (5 mg/kg/day) or a target drug administered by gavage to assess weight gain followed by biochemical analysis. Liver from the protection group supplemented with KMUP-1 HCl (1 mg/kg/day) were used to determine the HMG CoA reductase expression.
Within 2 months, the 3 day food intake average for each animal was measured. The weight gain and plasma lipid levels of each group were determined and compared to the non-treatment control group. […] Agents used in the assays were obtained from Merck & Co. (Kenilworth, NJ, U.S.A.). Triglyceride (TG), total cholesterol, HDL cholesterol and LDL cholesterol in mouse serum were measured by methods used in the clinic. To measure the hepatic TG, isolated liver were cut into small chips.

8-(p-chloro-phenylthio)guanosine-3,5-monophosphorothioate [Rp-8-pCPT-cGMPS]
ROCK II expression (Fig. 24B) (ROCK II; HepG2, 10µM cGMP antagonist alone): increased

Cn1c(=O)c2c(ncn2CCN2CCN(c3ccccc3Cl)CC2)n(C)c1=O [KMUP-1 HCl, 7-[2-[4-(2-chlorophenyl)piperazinyl]ethyl]-1,3-dimethylxanthine HCl complex]
HFD-induced downregulation of HMG CoA reductase expression in liver (HMG CoA reductase): significantly reversed | HDL chol. (mice fed with HFD; Dose 2.5 mg/kg): 103.6± 4.2 | LDL chol. (mice fed with HFD; Dose 2.5 mg/kg): 14.2± 1.4 | TG (mice fed with HFD; Dose 2.5 mg/kg): 74.5± 5.1 | Tot. chol. (mice fed with HFD; Dose 2.5 mg/kg): 133± 5.1 | HDL chol. (mice fed with HFD; Dose 5 mg/kg): 118.3± 5.7 | LDL chol. (mice fed with HFD; Dose 5 mg/kg): 14.2± 2.2 | TG (mice fed with HFD; Dose 5 mg/kg): 72.67± 4.7 | Tot. chol. (mice fed with HFD; Dose 5 mg/kg): 125.5± 9.8

Cn1c(=O)c2c(ncn2CCN2CCN(c3ccccc3Cl)CC2)n(C)c1=O [KMUP-1, 7-[2-[4-(2-chlorophenyl)piperazinyl]ethyl]-1,3-dimethyl xanthine]
HDL (HDL cholesterol) (mice fed with HFD; 2.5mg/kg by gavage): 103.6 ± 4.2 mg/dL | LDL (LDL cholesterol) (mice fed with HFD; 2.5mg/kg by gavage): 14.2 ± 1.4 mg/dL | TG of liver (Triacylglycerol) (mice fed with HFD; 2.5mg/kg by gavage): 28.4 ± 3.6 mg/dL | TG in serum (Triacylglycerol) (mice fed with HFD; 2.5mg/kg by gavage): 74.5 ± 5.1 mg/dL | HDL (HDL cholesterol) (mice fed with HFD; 5mg/kg by gavage): 118.3 ± 5.7 mg/dL | LDL (LDL cholesterol) (mice fed with HFD; 5mg/kg by gavage): 14.2 ± 2.2 mg/dL | TG of liver (Triacylglycerol) (mice fed with HFD; 5mg/kg by gavage): 26.12 ± 3.1 mg/dL | TG in serum (Triacylglycerol) (mice fed with HFD; 5mg/kg by gavage): 72.7 ± 4.7 mg/dL

C[C@@H](N)[C@H]1CC[C@H](C(=O)Nc2ccncc2)CC1 [Y27632]
ROCK II expression (Fig. 24A) (ROCK II; HepG2, 24 hours, C3 exoenzyme 5 µg/ml, Y27632 10 µM): reduced

CCC(C)(C)C(=O)O[C@H]1C[C@@H](C)C=C2C=C[C@H](C)[C@H](CC[C@@H]3C[C@@H](O)CC(=O)O3)[C@H]21 [simvastatin, reference compound]
HDL (HDL cholesterol) (mice fed with HFD; 5mg/kg by gavage): 103.2 ± 2.5 mg/dL | LDL (LDL cholesterol) (mice fed with HFD; 5mg/kg by gavage): 15.3 ± 1.3 mg/dL | TG of liver (Triacylglycerol) (mice fed with HFD; 5mg/kg by gavage): 35.5±2.** mg/dl | TG in serum (Triacylglycerol) (mice fed with HFD; 5mg/kg by gavage): 82.7 ± 6.3 mg/dL
